Experimental data from patent publication US20100137239A1, “GEMCITABINE COMBINATION THERAPY” (GLOUCESTER PHARMACEUTICALS, priority 2006, published 2010).
Several values for one entry are separate records, joined by “and”; a condition that tells them apart may be missing. Identical values can stand only once. Entries after “also recorded” stand apart in the source; their conditions may differ.

Experiments:
[1] = BxPC-3 study: animal weight and drug toxicity
Text: Model Information—Female nude mice (nu/nu) between 5 and 6 weeks of age weighing approximately 20 grams were obtained from Harlan, Inc. (Madison, Wis.). PANC-1, obtained from the ATCC, is a pancreas tumor cell line originating from a person^(1-2). BxPC-3, obtained from the American Type Culture Collection (ATCC), is a pancreas tumor cell line originating from a person^(3-4). PANC-1 Study: Animals were implanted subcutaneously (SC) by trocar with fragments of PANC-1 harvested from SC growing tumors in nude mice hosts. When tumors grew to approximately 135 cubic millimeters (mm^3) in size (17 days following implantation, animals were pair-matched by tumor size into treatment and control groups; each treatment group contained nine mice. BxPC-3 Study: Animals were implanted subcutaneously (SC) by trocar with fragments of BxPC-3 harvested from SC growing tumors in nude mice hosts. When tumors grew to approximately 85 cubic millimeters (mm^3) in size (19 days following implantation), animals were pair-matched by tumor size into treatment and control groups; each treatment group contained nine mice. Animals in both studies were ear-tagged and followed individually throughout the experiment.
Study Design and Dosing—Initial doses were administered on Day 1 following pair-matching; both experiments were carried out as tumor growth inhibition (TGT) studies. Animals were dosed intravenously (IV) via tail vein with FK228 once every four days for three treatments (Q4Dx3) or by intraperitoneal (IP) injection with gemcitabine once every three days for four treatments (Q3Dx4), either alone or in combination, at the doses listed below (Table 1). To serve as a negative control, FK228 vehicle (2% ethanol, 8% propylene glycol, 90% 0.9% saline) was injected on a Q4Dx3 schedule.
Animal Weights—Individual and group mean weights ±SD and percent weight change through Day 25 (PANC-1) or Day 29 (BxPC-3) were recorded twice weekly until study completion beginning Day 1. Final group mean weights ±SD and group nadir values are reported; weight data from individual animals experiencing technical or drug-related deaths was censored from final group calculations.
Moribundity/Mortality—Animals were observed twice weekly for general moribundity and daily for mortality. Animal deaths were assessed as drug-related or technical based on factors including gross observation and weight loss; reported animal death information includes type, number, and day of death for each group.
Statistics—Statistical analyses were carried out between treated and control groups comparing final weight, percent weight change, and tumor growth inhibition (Appendix III). For these groups, a two-tailed One-Way Analysis of Variance (ANOVA) followed by the Dunnett multiple comparisons test was employed. All analyses are performed using GraphPad Prism® software (version 4.0). Weight and tumor data from individual animals experiencing technical or drug-related deaths was censored from analysis.

[2] = system: NIH-3T3 cells transformed by H, K, N-Ras and the rat Her-2/NeuT; assay: 4-day proliferation assay, transformed NIH-3T3 cell lines; type: cell-based, mouse; settings: 2 nM romidepsin
Procedure: (§1) A series of transformed NIH-3T3 cell likes were generated and a proliferation assay was performed in the presence of 2, 3, or 4 nM romidepsin. FIG. 23 illustrates the transformed morphology of the cells. FIG. 24 presents graphs of cell proliferation.

[3] = system: B-Raf 600E cells; assay: 4-day proliferation assay, B-Raf 600E NIH-3T3 cells; type: cell-based, mouse; settings: 2, 3, or 4 nM romidepsin
Procedure: as §1

[4] = system: p21^waf; assay: Immunoblot of p21^waf in PANC-1 xenograft tumors; type: in vivo, human; settings: FK228 5 mg/kg Q4Dx3; gemcitabine 80 mg/kg Q3Dx4; tumors at study completion; vs controls
Procedure: Abstract: To examine activity and mechanism of FK228, antitumor efficacy was tested in PANC-1 pancreatic adenocarcinoma model representing transformed Ras, either as a single agent or in combination with gemcitabine. Following PANC-1 study completion, tumor and sera were obtained from: • the vehicle control; • FK228 dosed at 5 mg/kg once every four days for three treatments (Q4Dx3); • Gemcitabine at 80 mg/kg (Q3Dx4); and • the drug combination. Expression of c-Myc, acetylated histones 3 and 4, and p21^waf1 was compared between control and FK228 groups by immunoblotting and was quantified following actin normalization. Serum levels of putative tumor products b-FGF and MMP-2 were quantified by human-specific ELISA. […]
Tissue Biomarkers: Tumor levels of acetylated histone-4, histone-4, c-Myc, p21waf and β-actin were quantified by immunoblotting as described. […] The chemiluminescence signal was captured by autoradiography, quantified by densitometry and expressed as a ratio of actin in each sample lane. For each biomarker, means and standard errors were calculated in each treatment group. […]
Expression of c-Myc, acetylated histones 3 and 4, and p21^waf1 was compared between control and FK228 groups by immunoblotting and was quantified following actin normalization. Serum levels of putative tumor products b-FGF and MMP-2 were quantified by human-specific ELISA. […]

[5] = FK228 2.5 mg/kg IV Q4Dx3, 2.5 mg/kg
[6] = FK228 5 mg/kg IV Q4Dx3, 5 mg/kg

C/C=C1\NC(=O)[C@H]2CSSCC/C=C/[C@H](CC(=O)N[C@H](C(C)C)C(=O)N2)OC(=O)[C@H](C(C)C)NC1=O [FK228, romidepsin]
FINAL WEIGHT (DAY 29) % CHANGE ([1]; FK228 2.5 mg/kg IV Q4Dx3): +10% | WEIGHT NADIR % CHANGE ([1]; FK228 2.5 mg/kg IV Q4Dx3): −5% | WEIGHT NADIR DAY ([1]; FK228 2.5 mg/kg IV Q4Dx3): 11 | DRUG DEATHS TOTAL [1, 5]: 0/9 and 0 | FINAL WEIGHT (DAY 29) MEAN(G) ± SD [1, 5]: 25±2 G | FINAL WEIGHT (DAY 29) % CHANGE ([1]; FK228 5 mg/kg IV Q4Dx3): +7% | WEIGHT NADIR % CHANGE ([1]; FK228 5 mg/kg IV Q4Dx3): −15% | WEIGHT NADIR DAY ([1]; FK228 5 mg/kg IV Q4Dx3): 11 | DRUG DEATHS TOTAL [1, 6]: 0/9 and 0 | FINAL WEIGHT (DAY 29) MEAN(G) ± SD [1, 6]: 24±1 G | proliferation of transformed vs untransformed cells [2]: selectively inhibited | potency on B-Raf 600E cells [3]: not potent

Nc1ccn([C@@H]2O[C@H](CO)[C@@H](O)C2(F)F)c(=O)n1 [Gemcitabine, gemcitabine]
p21^waf expression [4]: downregulated; also recorded: down-regulated | DRUG DEATHS TOTAL ([1]; Gemcitabine 40 mg/kg IP Q3Dx4): 0/9 and 0 | FINAL WEIGHT (DAY 29) % CHANGE ([1]; Gemcitabine 40 mg/kg IP Q3Dx4): +9% | weight loss (nadir) ([1]; Gemcitabine 40 mg/kg IP Q3Dx4): No weight loss | DRUG DEATHS TOTAL ([1]; Gemcitabine 80 mg/kg IP Q3Dx4): 0/9 and 0 | FINAL WEIGHT (DAY 29) % CHANGE ([1]; Gemcitabine 80 mg/kg IP Q3Dx4): +1% | FINAL WEIGHT (DAY 29) MEAN(G) ± SD ([1]; Gemcitabine 80 mg/kg IP Q3Dx4): 22±4 G and 22 + 4 G | WEIGHT NADIR % CHANGE ([1]; Gemcitabine 80 mg/kg IP Q3Dx4): −9% | WEIGHT NADIR DAY ([1]; Gemcitabine 80 mg/kg IP Q3Dx4): 11
